Measured values as given in PubChem BioAssay AID602191 (Broad Institute, 2012).
Calls of active or inactive are those of the source.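 How the source made its calls: active means fitted curve reaches 40% activation at a concentration no higher than the top valid tested dose; inconclusive means flat fit between 30% and 70% activation, or poor fit; inactive means uptake decrease, flat fit within 30% of zero, the rest.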

target: Scavenger receptor class B member 1 (Mus musculus) (UniProt Q61009); experiment: activators of SR-BI-mediated HDL uptake, dose response, cell-based, ldlA[mSR-BI] CHO, DiI fluorescence, cherry-pick (AID 602191); conditions: ldlA[mSR-BI] CHO cells, 3 h;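 further: cell fluorescence from internalized DiI-labeled HDL after washing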;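 on AC40: potency of activators raising HDL uptake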;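 on activation (HDL uptake increase): 0% = median of DMSO wells and 100% = twice the DMSO signal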
Sequence (Q61009 whole entry, looked up): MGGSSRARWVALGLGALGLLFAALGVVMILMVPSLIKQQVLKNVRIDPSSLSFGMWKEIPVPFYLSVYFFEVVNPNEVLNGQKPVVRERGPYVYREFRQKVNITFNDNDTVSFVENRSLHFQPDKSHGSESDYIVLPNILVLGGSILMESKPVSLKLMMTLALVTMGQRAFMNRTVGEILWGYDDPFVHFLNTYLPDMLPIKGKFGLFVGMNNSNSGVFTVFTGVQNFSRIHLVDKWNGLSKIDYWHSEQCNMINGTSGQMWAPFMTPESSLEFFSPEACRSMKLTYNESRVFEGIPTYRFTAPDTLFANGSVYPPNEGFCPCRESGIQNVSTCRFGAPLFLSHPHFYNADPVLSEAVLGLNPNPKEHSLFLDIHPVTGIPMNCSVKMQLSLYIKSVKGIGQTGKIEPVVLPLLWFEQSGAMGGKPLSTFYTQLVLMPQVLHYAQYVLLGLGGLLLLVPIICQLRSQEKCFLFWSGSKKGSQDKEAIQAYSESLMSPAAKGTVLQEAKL

SMILES	AC40
CC(C)(C)NC(=O)C[C@H]1C[C@H](C(=O)N2CCOCC2)[C@@]2(CCC3CCCC3)c3[nH]c4ccc(Cl)cc4c3CCN2C1=O	> 35 µM (inactive)
C[C@@H]1CN([C@@H](C)CO)C(=O)Cc2cc(NC(=O)Nc3ccc(C(F)(F)F)cc3)ccc2O[C@@H]1CN(C)S(=O)(=O)c1ccc(Cl)cc1	31.1 µM
O=C(C[C@H]1C[C@H](C(=O)N2CCCCC2)[C@@]2(CCc3ccccc3)c3[nH]c4ccc(Cl)cc4c3CCN2C1=O)NCc1cccc(C(F)(F)F)c1	> 35 µM (inactive)
COCCNC(=O)c1onc(CSc2cccc(C)c2)c1C(=O)O	> 35 µM (inactive)
Cc1ccc(OCC(=O)OC(C)C(=O)NC2CCCCC2C)cc1C (stereo not drawn)	> 35 µM (inactive)

same assay, conditions: ldlA[mSR-BI] CHO cells, 3 h, at 35 µM (top of the series)

SMILES	activation (HDL uptake increase)
CCCCn1c(N)c(N(CCOC)C(=O)C2CC(=O)N(Cc3ccco3)C2)c(=O)[nH]c1=O (stereo not drawn)	0.156% (inactive)
COc1cccc(/C=N/n2c(SC)nnc2-c2ccccc2)c1O	-1.1% (inactive)
COc1cccc(N2CCN(c3ccc4nnc(CCC(=O)Nc5cc(C)ccn5)n4n3)CC2)c1	-11.4% (inactive)
COc1ccc(NC(=O)CN(C)C(=O)CCC2CCCC2)cc1	-6.8% (inactive)
O=C1CN(C(=O)COC(=O)C2=COCCO2)c2ccccc2N1	7.62% (inactive)
O=C(OCCc1cc2ccccc2c(=O)o1)c1ccc(F)cc1	-13.6% (inactive)
Cc1ccc(OCC(=O)N(C)CC(=O)NCc2ccco2)c(Br)c1	-24.2% (inactive)
NNC(=O)CNC(c1ccccc1)c1cc(Br)ccc1NC(=O)CCN1CCOCC1 (stereo not drawn)	-9.57% (inactive)
CN(C)CCCNC(=O)Cc1ccc(Br)cc1	0.791% (inactive)
COC(=O)C1(C)NC(c2ccccc2OC)C2C(=O)N(c3ccccc3)C(=O)C21 (stereo not drawn)	7.27% (inactive)
O=C(CNC(=O)c1ccc(Cl)cc1Cl)OCC(=O)N1CCCC1	-11.8% (inactive)
C/C(=N\N1C(=O)c2ccccc2NC1c1ccco1)c1ccccc1O (stereo not drawn)	-54.6% (inactive)
O=C(CCNC(=O)c1ccccc1Cl)NN1C(=O)NC2(CCCCC2)C1=O	-10.8% (inactive)
CC(C)CN(C(=O)CCNC(=O)c1ccccc1Cl)C1CCS(=O)(=O)C1 (stereo not drawn)	0.946% (inactive)
CC(C)C[C@@H](CN1CCCC1CN1C(=S)NC[C@@H]1Cc1ccc(O)cc1)N1C[C@H](Cc2ccc(O)cc2)N(CC2CCCCCC2)C1=S (stereo partly drawn)	1.49% (inactive)
CC(C)NC(=O)c1ccc(CS(=O)(=O)c2ccc(Br)cc2)o1	-7.98% (inactive)
CCN(CC(=O)Nc1c(F)cccc1F)C(=O)CCCc1nc2ccccc2c(=O)[nH]1	-5.94% (inactive)
COc1ccc(C(C(=O)NC2CCCCC2)N(C(=O)CCl)c2ccc(C)cc2)cc1 (stereo not drawn)	-7.32% (inactive)
CC(C)C(NC(=O)c1ccccc1F)C(=O)NCc1ccccc1 (stereo not drawn)	4.3% (inactive)
CCC(C)[C@@H](C(=O)NCC1CCC(C(=O)O)CC1)n1nnc2ccccc2c1=O (stereo partly drawn)	-5.54% (inactive)
CN1CCN(S(=O)(=O)c2cccc(C(=O)NC3(C)CCS(=O)(=O)C3)c2)CC1 (stereo not drawn)	-5.92% (inactive)
O=C(COC(=O)c1ccc[nH]c1=O)Nc1cc(S(=O)(=O)N2CCCCCC2)ccc1Cl	-9.61% (inactive)
CC(=O)c1cccc(S(=O)(=O)NCCCN2CCOCC2)c1	-4.98% (inactive)
O=C(c1ccc(Cl)cc1)C1CCCN(Cc2ccc3ncccc3c2)C1 (stereo not drawn)	12.3% (inactive)
CCCCn1c(CN2CCN(C(=O)c3ccco3)CC2)nc2c1c(=O)n(C)c(=O)n2C	2.07% (inactive)
O=C(CCN1C(=O)c2ccccc2C1=O)C1=NN[C@@H]2C(=O)N(c3cccc(F)c3)C(=O)[C@H]12	-9.51% (inactive)

SMILES	activation (HDL uptake increase)
O=C(NCc1cnn(-c2ccccc2)c1)C1CCC(=O)N(C2CC2)C1 (stereo not drawn)	-6.78% (inactive)
Cc1ccc2nc(N(CCCN(C)C)C(=O)c3ccc(S(=O)(=O)N4CCOCC4)cc3)sc2c1	-2.75% (inactive)
Cc1c(C(=O)NCCN2CCOC2=O)oc2c(F)cccc12	-0.811% (inactive)
O=C(NCc1ccccn1)c1ccc(S(=O)(=O)Nc2ccccc2F)cc1	0.427% (inactive)
Cn1c(SCC(=O)N2CCCCCC2)nc2c(c1=O)SCC2	-10.7% (inactive)
COCCCNC(=O)CCSc1ccc(Cl)cc1	-8.45% (inactive)
CC(C)CC(=O)c1c(O)c(C=O)c(O)c2c1O[C@@]1(C)[C@@H](C2)C[C@H]2C[C@@H]1C2(C)C	-25.2% (inactive)
COCCNC(=O)c1onc(CSc2cccc(OC)c2)c1C(=O)O	11.9% (inactive)
COc1cc(-n2c(C)nc3cc(C(=O)NCC4CCCO4)ccc32)cc(OC)c1OC (stereo not drawn)	-12.1% (inactive)
COc1ccc(C(C(=O)NC2CCCCC2)N(C(=O)CCl)c2ccccc2Cl)cc1 (stereo not drawn)	-7.36% (inactive)
Cc1ccccc1-n1nc2c(c1NC(=O)c1ccco1)CS(=O)(=O)C2	-9.94% (inactive)
O=C(c1ccco1)N1CCN(C(=S)Nc2ccc(F)c(Cl)c2)CC1	-12.3% (inactive)
CC1CCC(NC(=O)CCNS(=O)(=O)c2ccccc2)CC1 (stereo not drawn)	10.2% (inactive)
CCOC(=O)c1c(NC(=O)C2COc3ccccc3O2)sc2c1CC(C)(C)NC2(C)C (stereo not drawn)	-5.51% (inactive)
COc1ccc(CN(C(=O)c2cnccn2)C(C(=O)Nc2ccc(F)cc2)c2ccccc2)cc1 (stereo not drawn)	-4.64% (inactive)
Cc1cc(C)nc(SCC(=O)OC(C)C(=O)Nc2ccccc2)n1 (stereo not drawn)	-8.43% (inactive)
CC(C)C[C@@H](CN1CCCC1CN1C(=S)NC[C@@H]1Cc1ccc(O)cc1)N1C[C@H](Cc2ccc(O)cc2)N(CCc2ccccc2)C1=S (stereo partly drawn)	39.2% (inactive)
CN(C)CCn1c2c(c(SCC(=O)NCc3ccccc3)nc1=O)CCCC2	5.5% (inactive)
O=C(CNC(=O)c1cncc(Br)c1)Nc1ccc(F)c(F)c1F	-11% (inactive)
COc1ccc2c(CC(=O)NCC3CCC(C(=O)O)CC3)cc(=O)oc2c1 (stereo not drawn)	15.1% (inactive)
O=C(COc1ccc([N+](=O)[O-])cc1)NCc1cccnc1	-4.82% (inactive)
CCOc1ccc(CNC(=O)CCS(=O)(=O)c2ccc3c(c2)oc(=O)n3C)cc1	8.83% (inactive)
COc1ccccc1N1CCN(C2CCCN(C(=O)c3ccccn3)C2)CC1 (stereo not drawn)	-4.31% (inactive)
O=C(COC(=O)c1ccco1)c1ccc(S(=O)(=O)N2CCCCC2)cc1	-16.4% (inactive)
CNC[C@H](CC1CCCCC1)NC[C@H](Cc1ccccc1)NCCC12CC3CC(CC(C3)C1)C2	-31.7% (inactive)
O=C(Nc1cccc(S(=O)(=O)NC2=NCCC2)c1)c1ccc(F)cc1F	-14.5% (inactive)

SMILES	activation (HDL uptake increase)
O=C1NC2NC(=O)N(C(Cc3ccccc3)C(=O)O)C2N1 (stereo not drawn)	-4.43% (inactive)
O=C(C1=C[C@@H](c2ccc(Br)cc2)C[C@@H](OCc2ccc(CO)cc2)O1)N1CCN(Cc2ccccc2)CC1	0.848% (inactive)
O=C1CCC(=O)N1c1ccc(S(=O)(=O)Nc2cccc(Br)c2)cc1	-7.52% (inactive)
CC1CCN(S(=O)(=O)c2ccc3c(c2)c(=O)c(C(=O)N2CCCCC2)cn3C)CC1	-8.34% (inactive)
Cc1ccc(C(=O)NCCCN2CCOCC2)cc1S(=O)(=O)N1CCCCC1	9.53% (inactive)
O=C(N/N=C\c1cccnc1)c1ccc(Br)s1	-10.3% (inactive)
COCCN(Cc1nnc(-c2cccs2)o1)C(=O)c1cccc(S(=O)(=O)N2CCOCC2)c1	-7.49% (inactive)
C[C@@H]1CN([C@@H](C)CO)C(=O)Cc2cc(NC(=O)Nc3ccc(F)cc3)ccc2O[C@@H]1CN(C)Cc1ccc(Cl)c(Cl)c1	94.8% (inactive)
Cc1ccc(CNC(=O)CCNC(=O)c2ccc(Br)o2)cc1	-10.8% (inactive)
CC(C)(C)n1nc2c(c1NC(=O)Cc1ccc(F)cc1)CS(=O)(=O)C2	9.82% (inactive)
CCN(CC)CCCNC(CC(=O)Nc1cccc([N+](=O)[O-])c1)C(=O)O (stereo not drawn)	-2.51% (inactive)
CN1CCN(C(=O)C2CCN(S(=O)(=O)c3ccc4c(c3)oc(=O)n4C)CC2)CC1	-0.287% (inactive)
Cc1cc(C)nc(Nc2ncc(O)n2-c2ccccc2)n1	-7.64% (inactive)
O=C(Cc1ccsc1)N1CCN(S(=O)(=O)c2cccc(F)c2)CC1	-4.56% (inactive)
O=C(CCC(=O)N1CCOc2ccc(Cl)cc21)NCCCN1CCN(Cc2ccccc2)CC1	4.6% (inactive)
CCCC(=O)Nc1cc(C(=O)O)ccc1S(=O)(=O)c1ccc(C)cc1	1.17% (inactive)
COC(=O)CNC(=O)C12CC3CC(C1)CC(c1ccc(C)cc1)(C3)C2	-4.62% (inactive)
Cc1ccc(N(CC(=O)NC2CCC(C)CC2)S(=O)(=O)c2cccnc2)cc1 (stereo not drawn)	6.17% (inactive)
Cn1nnnc1SCCNC(=O)C1CCC(=O)N(Cc2ccccc2F)C1 (stereo not drawn)	-10.7% (inactive)
CCOc1ccc(S(=O)(=O)N2CCN=C2c2ccccc2)c(C)c1C	-9.83% (inactive)
C[C@@H](C(=O)OCC(=O)c1ccccc1)N1C(=O)C2CCCCC2C1=O (stereo partly drawn)	-7.88% (inactive)
CC(=O)NC1(C2CCCCC2=O)CCCCC1 (stereo not drawn)	-3.84% (inactive)
COc1ccccc1CNC(=O)COC(=O)CSc1ccc(C)c(C)c1	-0.519% (inactive)
CCCNC(=O)c1onc(CSc2ccc(F)cc2)c1C(=O)NCCOC	-11.4% (inactive)
CC(C(=O)NCCS(=O)(=O)c1ccc(Br)cc1)S(=O)(=O)c1ccc(Cl)cc1 (stereo not drawn)	11.1% (inactive)
CN(C)c1nc(C#N)nc(N2CCOCC2)n1	4.22% (inactive)
